Reference: patent publication US20260209692A1, “BASAL MEDIUM COMPOSITION FOR ANIMAL CELL CULTURE” (TableMark Co., Ltd., priority 2023, published 2026)

Key:
[1] = tested on: mouse-derived myoblast cell line C2C12; test: Cell culture test of amino acid conditions, C2C12 (Example 1); type: cell-based; conditions: C2C12, from condition 19 (1/8 amount) vs condition 20
Description: Of the constituents to be contained in Dulbecco's Modified Eagle Medium (DMEM), those excluding amino acids was dissolved in ion-exchanged water to prepare A.A.-IMEM Seven types of yeast extract ([…], and J) shown below were each further added to the A.A.-IMEM Buffer, so that the final concentration in the medium was 1 g/L. Various amino acids required for the proliferation of cultured cells in DMEM were added to “A.A.-IMEM Buffer+yeast extract” according to conditions 1 to 16 in Table 3, and a cell culture test was conducted. […] The amount of each amino acid added was the same as that contained in the formulation of DMEM. In addition, the same amino acid composition as that of DMEM was used as P.C. (positive control), while the same amino acid composition as that of DMEM but with 1⁄8th the amount added was used as condition 19, and that with 1/32nd the amount added was used as condition 20. All reagents used in the experiment were of food additive grade. 10% heat-inactivated fetal bovine serum (FBS) and 1% penicillin-streptomycin-amphotericin (PSA) were further added to A.A.-IMEM Buffer+yeast extract and the amino acids of each condition listed in Table 3, so as to conduct a cell culture test. For the cell culture test, mouse-derived myoblast cell line C2C12 was used. […]

[2] = tested on: RL34 cells (established cell line); test: Culturability when L-cystine was replaced with L-cysteine, RL34 (Example 9); type: cell-based, rat; conditions: RL34, end of third subculture, 0.072 g/L
Description: (§1) Cells used: MDBK cells (established cell line), RL34 cells (established cell line), duck liver-derived cells (primary cultured cells)
(§2) Amount of L-cysteine hydrochloride monohydrate added: Since L-cystine is a dimer of L-cysteine, L-cysteine hydrochloride monohydrate was added in an amount twice the number of moles of L-cystine.
(§3) MDBK cells and RL34 cells were each subcultured in a complete medium prepared by adding 1% PSA and 10% FBS to the above basal medium. Duck liver-derived cells were also subcultured in a complete medium prepared by adding 1% PSA and 10% serum to the above basal medium. In both cases, subculture was performed every 3 to 4 days, and subculture was performed up to the third time.

[3] = tested on: MDBK cells (established cell line); test: Culturability when L-cystine was replaced with L-cysteine, MDBK (Example 9); type: cell-based, bovine; conditions: end of third subculture, 0.072 g/L
Description: as §1, §2, §3

[4] = tested on: duck liver-derived cells (primary cultured cells); test: Culturability when L-cystine was replaced with L-cysteine, duck liver-derived cells (Example 9); type: cell-based; conditions: end of third subculture, 0.072 g/L
Description: as §1, §2, §3

SMILES	amount of amino acid required in the medium [1]	difference in culturability due to replacement of L-cystine [2]	difference in culturability due to replacement of L-cystine [3]	difference in culturability due to replacement of L-cystine [4]
N[C@@H](CSSC[C@H](N)C(=O)O)C(=O)O [L-cystine]	at least 6.13 mg/L			
NC(=O)CC[C@H](N)C(=O)O [L-glutamine]	≥ 74.5 mg/L			
Cl.N[C@@H](CS)C(=O)O.O [L-cysteine hydrochloride monohydrate]		almost no difference in culturability	almost no difference in culturability	almost no difference in culturability
